According to publication PMC7870626, “Neurotoxicity and underlying cellular changes of 21 mitochondrial respiratory chain inhibitors” (Archives of Toxicology, 2021):
Like-named read-outs stand apart in the source and are kept apart here.

Experiments:
[1] = tested on: LUHMES cells; experiment: Intracellular ATP content after NeuriTox exposure; type: cell-based; conditions: Homo sapiens; NeuriTox exposure scheme, 24 h; read-out: LUHMES 24 h EC25 ATP (converted)
Experimental: (§1) The NeuriTox test was performed as previously described (Delp et al. [2018b]; Krug et al. [2013a]; Stiegler et al. [2011]). Briefly, cells differentiated for 48 h were re-seeded into 96-well plates at a density of 100,000 cells/cm^2 in DM without cAMP and GDNF, and treated 1 h after seeding for 24 h. Subsequently, multiple endpoints were determined, e.g., neurite outgrowth (i.e., NeuriTox test), resazurin reduction, intracellular ATP content, gene expression levels from TempO-Seq analysis, and proteasomal activity. For the 120 h exposure scenario, LUHMES cells were differentiated for another 3 days after reseeding before they were treated on day 5 (d5) and d7 by a half medium exchange. Endpoints were determined on d10 of differentiation.
Plates from the NeuriTox test were further used after imaging for determination of alternative endpoints. Intracellular ATP was determined as described earlier (Delp et al. [2019]). In brief, CellTiterGlo 2.0 assay mix (Promega) containing luciferase was added after imaging, and luminescence was recorded. For the determination of resazurin reduction, a 10 × resazurin stock solution was added after imaging to the medium (final resazurin concentration 2 µg/ml) (Delp et al. [2018a]). After 60 min incubation, resazurin fluorescence was recorded (ex: 530 nm, em: 590 nm). Background-corrected data was used for further analysis.

[2] = tested on: LUHMES cells; type: cell-based, human; conditions: for log2FoldChange AARS: gene AARS; for log2FoldChange AARS / log2FoldChange AASDHPPT / log2FoldChange AATF / log2FoldChange ABCA1 / log2FoldChange ABCA6: vs 0.1% DMSO; for log2FoldChange AASDHPPT: gene AASDHPPT; for log2FoldChange AATF: gene AATF; for log2FoldChange ABCA1: gene ABCA1; for log2FoldChange ABCA6: gene ABCA6
Experimental: Cells were cultured and treated as described above for the NeuriTox assay. On d3, after 24 h treatment, culture medium was replaced by 33 µl/well 1 × Biospyder lysis buffer. After 15 min at room temperature, plates were sealed and frozen at -80 °C to complete lysis. Samples were analyzed at Bioclavis (Glasgow) using the TempO-Seq technique and the EU-ToxRisk v2.0 gene probe panel covering ca. 3000 genes (Yeakley et al. [2017]). All genes are listed in the supplementary excel file (containing also all gene regulations). Briefly, a 50 bp fragment of the target gene was amplified. The amplification step also introduced sample-specific barcodes. This allowed pooling of all samples and standard next-generation sequencing of the ensemble. Afterward, adapters were used to allocate the sequenced fragments to the correct samples. Finally, the alignment of all sequenced fragments (FASTQ files) for each sample to the collection of reference 50 bp oligonucleotides was performed for the quantification of reads per gene, also known as the read count values. In a pre-filtering step, samples with a total count < 0.2 million and genes with an average count < 1.5 were removed.
To correct for both read depth and RNA composition, the DESeq2′s median of ratios normalization was applied. The analysis of differentially expressed genes (DEG) of each treatment against the control group was done by the Wald test implemented in DESeq2/R (Love et al. [2014]), including an FDR correction for p-adjusted ≤ 0.05. […] A curve was fit through these concentration–response data to obtain EC10DEG. For comparability, all DEG data were normalized to a positive control. […] The EC10DEG was calculated using an established online open access BMC calculator (BMCeasy) (Krebs et al. [2020]).

[3] = tested on: MRC complex (cI, cII or cIII); experiment: HepG2-based MRC complex assay in permeabilized cells (earlier study); type: cell-based; conditions: NeuriTox neurite EC25 relative to complex assay EC25 in permeabilized cells; respirometric data from HepG2-based assays ref van der Stel et al. 2020
[4] = tested on: proteasome; experiment: Proteasomal activity (KE3 assay) in LUHMES cells; type: cell-based, human; conditions: NeuriTox neurite EC25 relative to proteasomal activity EC25, LUHMES
Experimental: Activity of the proteasome was quantified as described in (Gutbier et al. [2018b]). Briefly, after exposure, culture medium was replaced by assay buffer containing a cell-permeable proteasomal substrate (MeOSuc-Gly-Leu-Phe-AMC, 25 µM (Bachem, Bubendorf, Switzerland) in HBSS). Its AMC-fluorescence (ex: 360 nm, em: 465 nm) increases with proteasomal activity and was monitored for 90 min. Background-corrected data were used for further analysis.

[5] = tested on: LUHMES cells; experiment: NeuriTox test: neurite area and viability, 24 h; type: cell-based, human
Experimental: as §1
Image acquisition and analysis was performed as described previously (Krug et al. [2013a]; Schildknecht et al. [2013]; Stiegler et al. [2011]). In brief, cells were live-stained with 1 µg/ml Hoechst H-33342 and 1 µM calcein-AM and image acquisition was done by an automated high content imager (Cellomics, Waltham, MA, USA). Cell viability was determined as ratio of live cells (cell bodies being Calcein- and Hoechst-positive) relative to the total amount of cells (Hoechst-positive cell bodies). Neurite area was calculated by subtracting the somatic area (Hoechst-positive area plus surrounding) from the calcein-positive area.

[6] = tested on: HepG2 cells; experiment: HepG2-based respirometry, total cell respiration (earlier study); conditions: NeuriTox neurite EC25 relative to cell respiration EC25; respirometric data from HepG2-based assays ref van der Stel et al. 2020
[7] = tested on: U2OS cells; experiment: cells; type: cell-based; conditions: Homo sapiens; U2OS osteosarcoma cells, 24 h, luminescence of constitutively expressed luciferase; read-out: Cytotox EC25 U2OS (converted)
Experimental: A cell suspension of 100,000 cells/ml was prepared in assay medium, and white 384-well plates were filled with 30 µl/well cell suspension. Twenty-four hours after seeding, a dilution series of test compound, as well as positive and negative controls, were added to the cells. After 24 h exposure, the medium was removed, and 10 µl of Triton X-100 lysis buffer was added to each well. The luminescent signal was determined in a luminometer by injecting BDS Illuminate Mix and measuring the light emission. The Cytotox CALUX cell line constitutively expresses a high level of luciferase protein; the light emission is therefore proportional to the cell number of live cells, and its decrease can be used as measure of cytotoxicity. The light emission generated by cells exposed to vehicle control was set to 100%, and the luminescence of cells exposed to the positive control toxicant tributyltin acetate [100 µM] was set to 0%. The light output of the cells exposed to different concentrations of test compounds was scaled accordingly.

[8] = Homo sapiens, NeuriTox exposure scheme, 24 h, read-out: LUHMES 24 h EC25 NA (neurite area) (converted)
[9] = Homo sapiens, NeuriTox exposure scheme, 24 h, read-out: LUHMES 24 h EC25 V (viability) (converted)
[10] = Homo sapiens, NeuriTox test, neurite outgrowth impairment, LUHMES 24 h, read-out: EC25 KE4 (AO) Neurite toxicity (converted)

| SMILES | EC25 [1] [µM] | Ratios of EC25 KE4/KE1 complex assay [3] | Ratios of EC25 KE4/KE3 proteasomal [4] | EC25 [5, 8] [µM] | EC25 [5, 9] [µM] | EC25 [5, 10] [µM] | Ratios of EC25 KE4/KE1 total respiration [6] | EC25 [7] [µM] | other results |
| --- | --- | --- | --- | --- | --- | --- | --- | --- | --- |
| CCCCCC[C@H]1C(=O)O[C@H](C)[C@H](NC(=O)c2cccc(NC=O)c2O)C(=O)O[C@@H](C)[C@@H]1OC(=O)CC(C)C [Antimycin A] | 25.1 | 1580 | 1.1 | 15.8 | > 50.1 | 15.8 | 1580 | 100 | log2FoldChange AARS ([2]; 0.08 µM, 24 h): -0.20 log2; log2FoldChange AASDHPPT ([2]; 0.08 µM, 24 h): -0.32 log2; log2FoldChange AATF ([2]; 0.08 µM, 24 h): 0.18 log2; log2FoldChange ABCA1 ([2]; 0.08 µM, 24 h): -0.64 log2; log2FoldChange ABCA6 ([2]; 0.08 µM, 24 h): 1.98 log2; Offset between neurite endpoint (LUHMES/SH-SY5Y) and U2OS viability [5]: potentially strong neurite-specific toxicant |
| COc1cc(CNC(=O)CCCC/C=C/C(C)C)ccc1O [Capsaicin] | > 50.1 | – | – | > 50.1 | > 50.1 | – | – | 63.1 | log2FoldChange AARS ([2]; 0.10 µM, 24 h): -0.12 log2; log2FoldChange AASDHPPT ([2]; 0.10 µM, 24 h): 0.45 log2; log2FoldChange AATF ([2]; 0.10 µM, 24 h): -0.07 log2; log2FoldChange ABCA1 ([2]; 0.10 µM, 24 h): -0.65 log2; log2FoldChange ABCA6 ([2]; 0.10 µM, 24 h): -2.67 log2 |
| CC1=C(C(=O)Nc2ccccc2)SCCO1 [Carboxin] | > 100 | 32 | < 0.8 | 79.4 | > 100 | 79.4 | < 8 | > 100 | log2FoldChange AARS ([2]; 0.20 µM, 24 h): -0.12 log2; log2FoldChange AASDHPPT ([2]; 0.20 µM, 24 h): 0.26 log2; log2FoldChange AATF ([2]; 0.20 µM, 24 h): 0.0462 log2; log2FoldChange ABCA1 ([2]; 0.20 µM, 24 h): -0.37 log2; log2FoldChange ABCA6 ([2]; 0.20 µM, 24 h): 0.78 log2 |
| Cc1ccc(-c2c(Cl)nc(C#N)n2S(=O)(=O)N(C)C)cc1 [Cyazofamid] | > 50.1 | < 5 | – | 50.1 | > 50.1 | 50.1 | – | 100 | log2FoldChange AARS ([2]; 0.00781 µM, 24 h): -1.30 log2; log2FoldChange AASDHPPT ([2]; 0.00781 µM, 24 h): 1.09 log2; log2FoldChange AATF ([2]; 0.00781 µM, 24 h): -0.24 log2; log2FoldChange ABCA1 ([2]; 0.00781 µM, 24 h): -1.98 log2; log2FoldChange ABCA6 ([2]; 0.00781 µM, 24 h): 0.44 log2; Precipitation in the assay ([5]; LUHMES NeuriTox concentration range): precipitate in the active concentration range |
| COc1cc2c(cc1OC)[C@@H]1C(=O)c3ccc4c(c3O[C@@H]1CO2)C=CC(C)(C)O4 [Deguelin] | 10 | 250 | 0.7 | 3.98 | 50.1 | 3.98 | 32 | > 50.1 | Number of DEGs triggered ([2]; 13 µM, 24 h, LUHMES): 325; Regulation of the 13 deguelin-sensitive genes (in words) ([2]; LUHMES 24 h): 11 out of 13 of these genes were not significantly regulated up to 0.8 µM deguelin, but clearly upregulated at 3.25 µM; log2FoldChange AARS ([2]; 0.05 µM, 24 h): -0.69 log2; log2FoldChange AASDHPPT ([2]; 0.05 µM, 24 h): 0.63 log2; log2FoldChange AATF ([2]; 0.05 µM, 24 h): -0.08 log2; log2FoldChange ABCA1 ([2]; 0.05 µM, 24 h): -2.12 log2; log2FoldChange ABCA6 ([2]; 0.05 µM, 24 h): 0.47 log2; Offset between neurite endpoint (LUHMES/SH-SY5Y) and U2OS viability [5]: > tenfold offset; EC50 ([5]; Homo sapiens, read-out: EC10V (10% reduction of viability), NeuriTox assay, LUHMES 24 h): 13 µM |
| Cc1ccccc1C(=O)Nc1cccc(OC(C)C)c1 [Mepronil] | > 100 | > 5.0 | > 0.8 | 100 | > 100 | > 100 | – | > 100 | log2FoldChange AARS ([2]; 0.20 µM, 24 h): 0.46 log2; log2FoldChange AASDHPPT ([2]; 0.20 µM, 24 h): 0.19 log2; log2FoldChange AATF ([2]; 0.20 µM, 24 h): 0.22 log2; log2FoldChange ABCA1 ([2]; 0.20 µM, 24 h): 0.65 log2; log2FoldChange ABCA6 ([2]; 0.20 µM, 24 h): 0.20 log2 |
| COC(=O)N(OC)c1ccccc1COc1ccn(-c2ccc(Cl)cc2)n1 [Pyraclostrobin] | 12.6 | 400 | 0.7 | 25.1 | > 50.1 | 25.1 | 100 | > 100 | log2FoldChange AARS ([2]; 0.0856 µM, 24 h): -0.28 log2; log2FoldChange AASDHPPT ([2]; 0.0856 µM, 24 h): 0.80 log2; log2FoldChange AATF ([2]; 0.0856 µM, 24 h): -0.24 log2; log2FoldChange ABCA1 ([2]; 0.0856 µM, 24 h): -1.33 log2; log2FoldChange ABCA6 ([2]; 0.0856 µM, 24 h): 0.89 log2 |
